Common to all, as to type: in vivo
The test system of experiment [1] is cocklebur (Xanthium pensylvanicum). Kind of experiment: Preemergence herbicidal activity, cocklebur. Particulars: Xanthium strumarium, pre-emergence, 336 h; for pest or weed control at 8966.8 g/ha: 8 lb/A. The gist of the method:
(§1)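 Step one: plant crop and weed seeds in soil flats. Step two: spray the acetone-dissolved, water-diluted compound (carrier 50 gal/A, dose in lb/A) immediately for preemergence, or after two weeks' growth for postemergence. Step three: about two weeks on, rate phytotoxicity as percent killed.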

The test system of experiment [2] is marigold (Tagetes spp.). Nature of the experiment: Preemergence herbicidal activity, marigold. Particulars: pre-emergence, 336 h; for pest or weed control at 8966.8 g/ha: 8 lb/A. The method, boiled down:
as §1

The subject of experiment [3] is morningglory (Ipomoca spp.). Kind of experiment: Preemergence herbicidal activity, morningglory. Particulars: Ipomoea, pre-emergence, 336 h; for pest or weed control at 8966.8 g/ha: 8 lb/A. The gist of the method:
as §1

Experiment [4] concerns tomato (Lycopersicon esculentum). Kind of experiment: Preemergence herbicidal activity, tomato. Particulars: Solanum lycopersicum, pre-emergence, 336 h, Pre; for pest or weed control at 8966.8 g/ha: 8 lb/A. The method, boiled down: as §1
Experiment [5] has as its system velvetleaf (Abutilon theophrasti). Nature of the experiment: Preemergence herbicidal activity, velvetleaf. Particulars: Abutilon theophrasti, pre-emergence, 336 h, Pre; for pest or weed control at 8966.8 g/ha: 8 lb/A. The method, boiled down:
as §1

Experiment [6] relates to barnyardgrass (Echinochloa crusgalli). Kind of experiment: Preemergence herbicidal activity, barnyardgrass. As to conditions: Echinochloa crus-galli, pre-emergence, 336 h, Pre; for pest or weed control at 8966.8 g/ha: 8 lb/A. The method, boiled down: (§2)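 Application rates are expressed as lb/A, with the compound taken up in acetone, then water, and sprayed at a 50 gal/acre-equivalent carrier volume. Treatment timing: immediately post-sowing for preemergence; two weeks after germination for postemergence.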

Experiment [7] has as its system downybrome (Bromus tectorum). Kind of experiment: Preemergence herbicidal activity, downybrome. Particulars: Bromus tectorum, pre-emergence, 336 h, Pre; for pest or weed control at 8966.8 g/ha: 8 lb/A. The method, boiled down:
as §1

Experiment [8] has as its system foxtail (Setaria spp.). Nature of the experiment: Preemergence herbicidal activity, foxtail. Particulars: Setaria, pre-emergence, 336 h, Pre; for pest or weed control at 8966.8 g/ha: 8 lb/A. The method, boiled down:
as §1

For experiment [9], the system named is yellow nutsedge (Cyperus esculentus). Kind of experiment: Preemergence herbicidal activity, yellow nutsedge. Particulars: Cyperus, pre-emergence, 336 h; for pest or weed control at 8966.8 g/ha: 8 lb/A. The gist of the method: as §1
Experiment [10] deals with wild oats (Avena fatua). Kind of experiment: Preemergence herbicidal activity, wild oats. Particulars: Avena fatua, pre-emergence, 336 h, Pre, read-out: % control, Wild oat; for pest or weed control at 8966.8 g/ha: 8 lb/A. The gist of the method:
as §1

Experiment [11] deals with cocklebur (Xanthium pensylvanicum). Kind of experiment: Postemergence herbicidal activity, cocklebur. Particulars: Xanthium strumarium, post-emergence, 336 h; for pest or weed control at 4483.4 g/ha: 4 lb/A. The gist of the method: as §1
Experiment [12] relates to marigold (Tagetes spp.). Kind of experiment: Postemergence herbicidal activity, marigold. Particulars: post-emergence, 336 h; for pest or weed control at 4483.4 g/ha: 4 lb/A. The gist of the method: as §1
Experiment [13] deals with morningglory (Ipomoca spp.). Kind of experiment: Postemergence herbicidal activity, morningglory. Particulars: Ipomoea, post-emergence, 336 h; for pest or weed control at 4483.4 g/ha: 4 lb/A. The gist of the method: as §1
Experiment [14] deals with tomato (Lycopersicon esculentum). Kind of experiment: Postemergence herbicidal activity, tomato. Particulars: Solanum lycopersicum, post-emergence, 336 h, Post; for pest or weed control at 4483.4 g/ha: 4 lb/A. The gist of the method:
as §1

Experiment [15] deals with velvetleaf (Abutilon theophrasti). Nature of the experiment: Postemergence herbicidal activity, velvetleaf. Particulars: Abutilon theophrasti, post-emergence, 336 h; for pest or weed control at 4483.4 g/ha: 4 lb/A. The method, boiled down: as §2
The subject of experiment [16] is barnyardgrass (Echinochloa crusgalli). Kind of experiment: Postemergence herbicidal activity, barnyardgrass. As to conditions: Echinochloa crus-galli, post-emergence, 336 h, Post; for pest or weed control at 4483.4 g/ha: 4 lb/A. The method, boiled down: as §2
The subject of experiment [17] is downybrome (Bromus tectorum). Nature of the experiment: Postemergence herbicidal activity, downybrome. As to conditions: Bromus tectorum, post-emergence, 336 h, Post; for pest or weed control at 4483.4 g/ha: 4 lb/A. The gist of the method: as §1
Experiment [18] deals with foxtail (Setaria spp.). Kind of experiment: Postemergence herbicidal activity, foxtail. As to conditions: Setaria, post-emergence, 336 h, Post; for pest or weed control at 4483.4 g/ha: 4 lb/A. The method, boiled down: as §1
For experiment [19], the system named is yellow nutsedge (Cyperus esculentus). Kind of experiment: Postemergence herbicidal activity, yellow nutsedge. Particulars: Cyperus, post-emergence, 336 h; for pest or weed control at 4483.4 g/ha: 4 lb/A. The method, boiled down: as §1
In experiment [20] the test system is wild oats (Avena fatua). Nature of the experiment: Postemergence herbicidal activity, wild oats. As to conditions: Avena fatua, post-emergence, 336 h, Post, read-out: % control, Wild oat; for pest or weed control at 4483.4 g/ha: 4 lb/A. The method, boiled down: as §1

Regarding `CCOC(=O)C(C)Oc1ccc([S+]([O-])c2ccc(C(F)(F)F)cc2Cl)cc1` (stereo not shown) [Example 42], the pest or weed control at 4483.4 g/ha stood at 0% in experiment [1] (4 lb/A); 0% with marigold (Tagetes spp.) [2] (4 lb/A); 0% in experiment [3] (4 lb/A); 0% in [4] (4 lb/A); 40% in [5] (4 lb/A); 95% in experiment [6] (4 lb/A). Also, the pest or weed control at 4483.4 g/ha in [7] (4 lb/A) amounted to 40%; in the experiment on foxtail (Setaria spp.) [8] (4 lb/A), 99%; in [9] (4 lb/A), 0%; in the experiment with wild oats (Avena fatua) [10] (4 lb/A), 20%; in experiment [11] it was 0%; in the experiment with marigold (Tagetes spp.) [12], 0%. For the same compound, the pest or weed control at 4483.4 g/ha (in experiment [13]; in experiment [14]; in [15]; in [16]; in experiment [17]; with foxtail (Setaria spp.) [18]) was 0% each time. Further, the pest or weed control at 4483.4 g/ha (in experiment [19]; in the experiment with wild oats (Avena fatua) [20]) was 0% throughout.

Consider `CCOC(=O)C(C)Oc1ccc(Sc2ccccc2C(F)(F)F)cc1` (stereo not shown) [Example 44, ethyl 2-(4-(2-trifluoromethylphenylthio)phenoxy) propionate], for which the pest or weed control at 8966.8 g/ha in experiment [1] was determined as 0%; in the experiment with marigold (Tagetes spp.) [2], 0%; in experiment [3], 0%; in experiment [4] it was 0%; in experiment [5], 30%; in experiment [6] it was 80%. The pest or weed control at 8966.8 g/ha in experiment [7] turned out to be 60%; with foxtail (Setaria spp.) [8], 0%; in [9] it was 0%; in the experiment on wild oats (Avena fatua) [10] it was 0%. Besides, the pest or weed control at 4483.4 g/ha stood at 0% in experiment [11]; 0% in the experiment on marigold (Tagetes spp.) [12]; 0% in experiment [13]; 0% in experiment [14]; 20% in experiment [15]; 0% in [16]. Moreover, the pest or weed control at 4483.4 g/ha in [17] was found to be 0%; with foxtail (Setaria spp.) [18], 20%; in experiment [19], 0%; in the experiment with wild oats (Avena fatua) [20] it was 0%.

As to `CCOC(=O)C(C)Oc1ccc(Sc2cccc(C(F)(F)F)c2)cc1` (stereo not shown) [Example 45, Ethyl 2-[4-(3-trifluoromethylphenylthio)phenoxy] propionate], the pest or weed control at 8966.8 g/ha (in [1]; in the experiment with marigold (Tagetes spp.) [2]; in experiment [3]; in experiment [4]; in experiment [5]; in experiment [6]) was 0% throughout. In addition, the pest or weed control at 8966.8 g/ha (in [7]; in the experiment on foxtail (Setaria spp.) [8]; in [9]; in the experiment with wild oats (Avena fatua) [10]) was 0% in each case. In addition, the pest or weed control at 4483.4 g/ha in experiment [11] amounted to 0%; in the experiment on marigold (Tagetes spp.) [12], 0%; in experiment [13], 0%; in [14], 80%; in experiment [15], 0%; in [16] it was 20%. Further, the pest or weed control at 4483.4 g/ha is 20% in experiment [17], 30% with foxtail (Setaria spp.) [18], 0% in experiment [19] and 20% in the experiment on wild oats (Avena fatua) [20].

With `CCOC(=O)C(C)Oc1ccc(Sc2ccc(C(F)(F)F)cc2)cc1` (stereo not shown) [Example 46], the pest or weed control at 8966.8 g/ha in experiment [1] was found to be 0%; in the experiment on marigold (Tagetes spp.) [2], 0%; in experiment [3], 0%; in experiment [4], 0%; in [5], 0%; in experiment [6], 70%. Besides, the pest or weed control at 8966.8 g/ha was found to be 50% in experiment [7], 70% in the experiment with foxtail (Setaria spp.) [8], 0% in experiment [9] and 0% in the experiment on wild oats (Avena fatua) [10]. Also, the pest or weed control at 4483.4 g/ha amounted to 0% in experiment [11]; 0% with marigold (Tagetes spp.) [12]; 0% in experiment [13]; 80% in [14]; 0% in experiment [15]; 50% in [16]. For the same compound, the pest or weed control at 4483.4 g/ha in [17] turned out to be 30%; in the experiment with foxtail (Setaria spp.) [18], 30%; in experiment [19], 0%; with wild oats (Avena fatua) [20], 20%.

On to `CCOC(=O)C(C)Oc1ccc(Sc2ccc(C(F)(F)F)cc2C#N)cc1` (stereo not shown) [Example 47], for which the pest or weed control at 2241.7 g/ha in experiment [1] (2 lb/A) was determined as 0%; in the experiment on marigold (Tagetes spp.) [2] (2 lb/A), 0%; in [3] (2 lb/A), 0%; in [4] (2 lb/A), 0%; in experiment [5] (2 lb/A), 0%; in experiment [6] (2 lb/A), 100%. Further, the pest or weed control at 2241.7 g/ha is 40% in [7] (2 lb/A); 95% in the experiment with foxtail (Setaria spp.) [8] (2 lb/A); 0% in experiment [9] (2 lb/A); 100% with wild oats (Avena fatua) [10] (2 lb/A); 0% in [11] (2 lb/A); 0% in the experiment on marigold (Tagetes spp.) [12] (2 lb/A). In addition, the pest or weed control at 2241.7 g/ha worked out at 0% in [13] (2 lb/A); 0% in [14] (2 lb/A); 0% in experiment [15] (2 lb/A); 100% in [16] (2 lb/A); 99% in experiment [17] (2 lb/A); 99% with foxtail (Setaria spp.) [18] (2 lb/A). For the same compound, the pest or weed control at 2241.7 g/ha amounted to 0% in experiment [19] (2 lb/A) and 99% with wild oats (Avena fatua) [20] (2 lb/A).

(Values after patent publication US4335249A, “Herbicidal diphenyl ethers, sulfides, sulfoxides and sulfones” (Rohm and Haas Company, priority 1976, dated 1982).)
